# Measurements taken from patent US8334288B2, “4-phenoxymethylpiperidines as modulators of GPR119 activity” (IRM LLC, priority 2008, dated 2012).
# Molecular target: T1, human GPR119 (Homo sapiens, UniProt Q8TDV5)
# T1 construct: expressed in transfected cells; host or cells: Flp-In-CHO cells (Invitrogen, Cat. #R758-07), stably transfected with pcDNA5/FRT-human GPR119 plus pOG44
# T1 sequence (Q8TDV5 1-335): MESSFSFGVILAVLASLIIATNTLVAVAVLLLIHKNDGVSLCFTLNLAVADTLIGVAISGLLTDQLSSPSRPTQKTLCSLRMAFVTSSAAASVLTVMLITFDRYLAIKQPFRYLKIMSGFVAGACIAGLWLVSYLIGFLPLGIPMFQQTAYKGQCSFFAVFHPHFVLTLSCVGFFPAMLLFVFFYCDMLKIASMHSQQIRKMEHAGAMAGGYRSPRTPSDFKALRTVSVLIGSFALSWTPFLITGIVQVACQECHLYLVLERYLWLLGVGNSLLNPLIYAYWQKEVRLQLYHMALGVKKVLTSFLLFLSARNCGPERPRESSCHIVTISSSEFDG
# Assay: Cyclic AMP assay in stable cell line (HTRF, Flp-In-CHO-hGPR119 cells)
# Type: cell-based
# Details: increase in intracellular cAMP, 30 minutes at 37° C., 1 mM IBMX
# Experimental: Flp-In-CHO cells (Invitrogen, Cat. #R758-07) are maintained in Ham's F12 medium supplemented with 10% fetal bovine serum, 1% antibiotic mixture and 2 mM L-glutamine. The cells are transfected with a DNA mixture containing human GPR119 in pcDNA5/FRT vector and the pOG44 vector (1:9) using Fugene6 (Roche), according to the manufacturer's instruction. After 48 h, the medium is changed to medium supplemented with 400 μg/ml hygromycin B to initiate the selection of stably transfected cells.
# To test the activity of compounds of the invention, Flp-In-CHO-hGPR119 cells are harvested and resuspended in DMEM plus 3% lipid-depleted fetal bovine serum. Forth μl of cells are plated in 384 well plates at a density of 15,000 cells/well. IBMX (3-isobutyl-1-methyl-xanthine) is added to the cells to a final concentration of 1 mM, followed by the addition of 500 nl of the compound to be tested. The cells are incubated at 37° C. for 30 minutes. Equal volume (20 μl) of the HTRF reagents, anti-cAMP-Cryptate and cAMP-XL665, are added to the cells. The plates are incubated at rt for 1 h and read on a HTRF reader according to the manufacturer's instruction.
row,EC50 [nM],Structure (SMILES)
1,1,"CCc1cnc(N2CCC(COc3c(F)cc(-c4ccc(S(C)(=O)=O)cn4)cc3F)CC2)nc1 [Example A1, 2-(4-((2,6-difluoro-4-(5-(methylsulfonyl)pyridin-2-yl)phenoxy)methyl)piperidin-1-yl)-5-ethylpyrimidine]"
2,0.7,"CCc1cnc(N2CCC(COc3c(F)cc(-c4ccc(S(=O)(=O)CC5(C)COC5)cc4)cc3F)CC2)nc1 [Example A3, 2-(4-((3,5-difluoro-4′-((3-methyloxetan-3-yl)methylsulfonyl)biphenyl-4-yloxy)methyl)piperidin-1-yl)-5-ethylpyrimidine]"
3,0.7,CCc1cnc(N2CCC(COc3c(F)cc(-c4ccc(S(C)(=O)=O)cc4)cc3F)CC2)nc1 [Example A6]
4,5,CCc1cnc(N2CCC(COc3c(F)cc(-c4ccc(CO)cc4)cc3F)CC2)nc1 [Example A14]
5,171,CCc1cnc(N2CCC(COc3c(F)cc(-c4cnc(N5CCCC5)nc4)cc3F)CC2)nc1 [Example A16]
6,46,COc1cc(-c2cc(F)c(OCC3CCN(C(=O)OC(C)(C)C)CC3)c(F)c2)ccn1 [Example A20]
7,2,CCc1cnc(N2CCC(COc3c(F)cc(-c4ccc(S(C)(=O)=O)nc4)cc3F)CC2)nc1 [Example A22]
8,258,CCc1cnc(N2CCC(COc3c(F)cc(-c4cnn(C)c4)cc3F)CC2)nc1 [Example A24]
9,9,CCc1cnc(N2CCC(COc3c(F)cc(-c4cnc(C(N)=O)nc4)cc3F)CC2)nc1 [Example A35]
10,29,CCc1cnc(N2CCC(COc3c(F)cc(-c4ccc(C(C)(C)O)nc4)cc3F)CC2)nc1 [Example A38]
11,37,CC1(OC(=O)N2CCC(COc3c(F)cc(-c4ccc(C5(N)CC5)nc4)cc3F)CC2)CC1 [Example A39]
12,79,CCc1cnc(N2CCC(COc3c(F)cc(-c4ccc(-c5nn[nH]n5)nc4)cc3F)CC2)nc1 [Example B5]
13,5,"CCc1cnc(N2CCC(COc3c(F)cc(-c4ccc(-c5nnn(C)n5)cc4)cc3F)CC2)nc1 [Example C1, 2-(4-((3,5-difluoro-4′-(2-methyl-2H-tetrazol-5-yl)biphenyl-4-yloxy)methyl)piperidin-1-yl)-5-ethylpyrimidine]"
14,22,CCc1cnc(N2CCC(COc3c(F)cc(-c4cccc(Cc5nnn(C)n5)c4)cc3F)CC2)nc1 [Example C5]
15,1,"CC1(OC(=O)N2CCC(COc3c(F)cc(-c4ccc(S(C)(=O)=O)cc4)cc3F)CC2)CC1 [Example D1, 1-methylcyclopropyl 4-((3,5-difluoro-4′-(methylsulfonyl)biphenyl-4-yloxy)methyl)piperidine-1-carboxylate]"
16,0.5,"CCc1cnc(N2CCC(COc3c(F)cc(-c4ccc(-n5cncn5)nc4C)cc3F)CC2)nc1 [Example F1, 2-(4-((2,6-difluoro-4-(2-methyl-6-(1H-1,2,4-triazol-1-yl)pyridin-3-yl)phenoxy)methyl)piperidin-1-yl)-5-ethylpyrimidine]"
17,0.3,"CCCS(=O)(=O)c1ccc(-c2cc(F)c(OCC3CCN(C(=O)OC4(C)CC4)CC3)c(F)c2)c(C)n1 [Example F4, 1-methylcyclopropyl 4-((2,6-difluoro-4-(2-methyl-6-(propylsulfonyl)pyridin-3-yl)phenoxy)methyl)piperidine-1-carboxylate]"
18,1,"CCCS(=O)(=O)c1ccc(-c2cc(F)c(OCC3CCN(C(=O)OC(C)CC)CC3)c(F)c2)c(C)n1 (stereo not shown) [Example F6, sec-butyl 4-((2,6-difluoro-4-(2-methyl-6-(propylsulfonyl)pyridin-3-yl)phenoxy)methyl)piperidine-1-carboxylate]"
19,3,"CCc1cnc(N2CCC(COc3c(F)cc(-c4ccc(-c5cnco5)cc4)cc3F)CC2)nc1 [Example G1, 5-(4′-((1-(5-ethylpyrimidin-2-yl)piperidin-4-yl)methoxy)-3′,5′-difluorobiphenyl-4-yl)oxazole]"
20,92,CCc1cnc(N2CCC(COc3c(F)cc(-c4ccc(Cn5ccnc5)cc4)cc3F)CC2)nc1 [Example H4]
21,28,CCc1cnc(N2CCC(COc3c(F)cc(-c4ccc(Cn5ncnn5)cc4)cc3F)CC2)nc1 [Example H5]
22,13,CC1(OC(=O)N2CCC(COc3c(F)cc(-c4cnc(C(=O)N5CCC(O)CC5)nc4)cc3F)CC2)CC1 [Example J1]
23,19,CCN(CCO)C(=O)c1ncc(-c2cc(F)c(OCC3CCN(C(=O)OC4(C)CC4)CC3)c(F)c2)cn1 [Example J5]
24,10,CCOC(=O)CCNC(=O)c1ncc(-c2cc(F)c(OCC3CCN(C(=O)OC4(C)CC4)CC3)c(F)c2)cn1 [Example J8]
25,263,CC1(OC(=O)N2CCC(COc3c(F)cc(-c4cnc5[nH]c(=O)oc5c4)cc3F)CC2)CC1 [Example J11]
26,14,CN1CCN(C(=O)c2ncc(-c3cc(F)c(OCC4CCN(C(=O)OC5(C)CC5)CC4)c(F)c3)cn2)CC1 [Example J12]
27,45,CC1(OC(=O)N2CCC(COc3c(F)cc(-c4cnc(C(=O)NCCCO)nc4)cc3F)CC2)CC1 [Example J15]
28,47,CC1(OC(=O)N2CCC(COc3c(F)cc(-c4cnc(C(=O)N5CC[C@H](O)C5)nc4)cc3F)CC2)CC1 [Example J19]
29,2070,"CCc1cnc(N2CCC(COc3c(F)cc(-c4cnn(CCN(C)C)c4)cc3F)CC2)nc1 [Example K1, 2-(4-(4-((1-(5-ethylpyrimidin-2-yl)piperidin-4-yl)methoxy)-3,5-difluorophenyl)-1H-pyrazol-1-yl)-N,N-dimethylethanamine]"
30,62,"CCc1cnc(N2CCC(COc3c(F)cc(-c4ccc(CN(C)C(C)=O)cc4)cc3F)CC2)nc1 [Example L1, N-((4′-((1-(5-ethylpyrimidin-2-yl)piperidin-4-yl)methoxy)-3′,5′-difluorobiphenyl-4-yl)methyl)-N-methylacetamide]"

row,Structure (SMILES),EC50 [nM]
1,"CC(C)(C)OC(=O)N1CCC(COc2c(F)cc(-c3cc[n+]([O-])cc3)cc2F)CC1 [Example E1, 4-(4-((1-(tert-butoxycarbonyl)piperidin-4-yl)methoxy)-3,5-difluorophenyl)pyridine 1-oxide]",38
